Data taken from patent publication EP4613274A1, “SENOLYTIC COMPOUNDS” (Freie Universität Berlin, priority 2024, dated 2025).

Legend:
hydrogen peroxide = assay: Europium-tetracycline (EuTc) fluorescence assay for hydrogen peroxide generation; format: biochemical
Description: For a confirmation of the POG redox cycling, hydrogen peroxide formed by peroxygenin from elemental oxygen was quantified. For this purpose, a fluorescence-based europium tetracycline assay in 3-(N-morpholino)propanesulfonic acid (MOPS) buffer at pH 6.9, close to the physiological pH, was adapted for monitoring of hydrogen peroxide released from POG-4 (Wolfbeis et al., 2002; Dürkop et al., 2005; Wu et al., 2005; Schrenkhammer et al., 2007) Reportedly, this assay is based on the formation of an quaternary pentagonal bipyramidal Eu(III)-tetracycline (Tc) complex of the stoichiometry Eu2Tc2 (Karthikeyan et al., 2004) in which one equivalent of hydrogen peroxide forms a bridged peroxide complex (µ-H2O2 ligand) (Dehaen et al. 2009) and upon excitation at 405 nm fluoresces at 616 nm. First, the sensitivity of the assay toward hydrogen peroxide was investigated. For that, different hydrogen peroxide concentrations, ranging from 10 µM to 1000 µM, were used to analyze the fluorescence signal (Figures 2A and 2B, curves 6 to 14 and 26 to 34; curves 6 and 26:1000 µM, curves 7 and 27: 800 µM, curves 8 and 28: 400 µM, curves 9 and 29: 200 µM, curves 10 and 30: 100 µM, curves 11 and 31: 50 µM, curves 12 and 32: 25 µM, curves 13 and 33: 10 µM, curves 14 and […]).
Next, the same assay conditions were applied to quantify hydrogen peroxide formation from POG-4 (V3) (referred to in the following simply as POG-4) having the following formula: [drawing 142] […]
Protocol: The assay was performed in cuvettes with a base area of 1 cm x 1 cm. Measurement of fluorescence intensity was carried out with a fluorescence spectrometer FP-6500 by Jasco at λem = 616 nm (λex = 405 nm). […]
H2O2 calibration: DTT (10 µL, 200 mM; 1mM final concentration) were added to Eu2Tc2 (2 mL) solution in a cuvette and equilibrated by stirring for 5 min at 37 °C until the fluorescence signal was constant. […] All measurements were repeated three times and a mean was calculated. […]

[1] = test system: Eµ-myc;Bcl2 lymphoma cells; assay: 22-hours cytotoxicity assay (dye exclusion) in therapy-induced senescence (TIS) model; format: cell-based, murine; settings: ADR 0.02 µg/ml for 10 d; for senolytic activity in senescent cells protected by expression of catalase: catalase overexpression, POG for 22 h
Experimental: TIS: Eµ-myc;Bcl2 lymphoma cells (with or without catalase overexpression) and senescence-/p53-deficient Eµ-myc; Bcl2 lymphoma cells were treated with ADR (0.02 µg/ml) or solvent.
(§1) All cells were analyzed at day 10 after start of the treatment and oncogene induction, respectively. Shown in grey in the first (left) column are mean percentages of senescence-associated beta-galactosidase (SA-β-gal)-)positive cells for each treatment. Proliferating cells and their senescent counterpart were exposed to the same increasing concentrations of POG (from left to right: murine Eµ-myc lymphoma cells and primary mouse fibroblasts = 0, 0.2, 0.4, 0.8, and 1.2 µM) POG, for VIS and RS = 0, 2, 3, 4, and 5 µM) POG, and for all others = 0, 1, 2, 3, and 4 µM) POG) for 22 h before measuring their viabilities using a dye exclusion test.
Viability of solvent-treated cells were set to 100% for each treatment and viabilities of POG-treated cells were normalized relative to solvent-treated controls.
The senescent state was documented by specific measurement of increased SA-β-galactosidase activity. […] Eµ-myc;Bcl2 lymphoma cells (with or without ectopic catalase overexpression, introduced via stable retroviral gene transfer) and senescence-/p53-deficient Eµ-myc;Bcl2 lymphoma cells were treated with ADR (0.02 µg/ml) or solvent for 10 d. Proliferating cells and their senescent counterpart were exposed to the same increasing concentrations of POG for 22 h before measuring their viabilities using a dye exclusion test (Ghost Dye Red 780, 13-0865-T500, Tonbo). Viability of solvent-treated cells were set to 100% for each treatment and viabilities of POG-treated cells were normalized relative to solvent-treated controls.

[2] = test system: Primary mouse embryo fibroblasts (MEF); assay: Viability of rotenone-treated MEF with raised cellular NADH (dye exclusion assay); format: cell-based; settings: 500 nM rotenone 2 h prior to POG exposure (1 µM), viability 22 h later
Experimental: Increasing cellular NADH levels sensitizes cells towards POG-mediated killing in a H2O2-dependent fashion. Primary mouse embryo fibroblasts (MEF) were stably transduced with a catalase-overexpressing retrovirus or empty virus and exposed to 500 nM rotenone (an NADH dehydrogenase inhibitor used to increase cellular NADH levels via inhibition of the mitochondrial complex I) 2 h prior to POG exposure (1 µM) before measuring cell viabilities 22 h later using a dye exclusion assay (Ghost Dye Red 780, 13-0865-T500, Tonbo). Figure 5 illustrates the results in form of means ± standard deviation (SD).

C57/BL6 mice [3] = assay: Rotarod performance test in aged mice; format: in vivo; settings: 10-months old mice, 0.25 mg/kg body weight i.v. twice every fortnight, rotarod one month later, versus solvent
Experimental: To quantify the global impact of POG on age-related physical decline, a rotarod performance test was conducted, which captures the time mice can run on a rotating rod before falling off due to exhaustion.
For the experiments, the results of which are shown in Figure 7A, C57/BL6 mice (10-months old, "old mice") were treated twice with POG (0.25 mg/kg body weight, i.v. injected every fortnight; n = 11) or solvent (n = 11), before their physical performance was assessed using a rotarod device one month later (from 4 to 40 rpm in 180 s; acceleration rate: 0.2 rpm/s). For comparison a cohort of untreated young mice (8-weeks old; n = 10) was measured in parallel. Each datapoint represents the maximum time the (previously trained) animal was able to remain on the rotating rod from 5 consecutive runs per mouse.

[4] = test system: Eµ-myc transgenic lymphomas; assay: Overall survival of CTX-treated lymphoma-bearing mice with sequential POG exposure; format: in vivo; settings: CTX 1 × 300 mg/kg i.p. then POG 2 × 0.25 mg/kg i.v.
Experimental: The inventors also analyzed the impact of a sequential POG exposure on overall survival in chemotherapy-exposed mice bearing senescence-capable vs. senescence-incapable lymphomas. […] In essence, POG treatment led to reduction of senescent cells in vivo, and extended healthy lifespan of aged and anticancer-treated mice.
CTX treatment: 1 × 300 mg/kg body weight via i.p., POG treatment: 2 × 0.25 mg/kg body weight via the i.v. application route. Figure 7B illustrates means ± SD, wherein an unpaired two-tailed Student's t test was done for statistical analysis (*P < 0.05).

Liver cell preparations = assay: Ex vivo treatment of liver cell preparations (SA-β-gal, TUNEL, DAPI staining); format: cell-based, C57/BL6 mice; settings: old (20-months old) mice, ex vivo 22 h, POG 1.5 µM
Experimental: Liver cell preparations from young (10-weeks old) and old (20-months old) C57/BL6 mice were treated ex vivo for 22 h with POG (1.5 µM) or solvent. Cells were fixed and stained for SA-β-gal, TUNEL (Terminal deoxynucleotidyl transferase dUTP nick end labeling) and DAPI (4',6-diamidino-2-phenylindole). Percentage of senescent (SA-β-gal-positive) cells present in the viable (TUNEL-negative) liver cell population (Figure 8A) and overall viability of the liver cell population (Figure 8B) was quantified via fluorescence microscopy.

[5] = test system: Primary mouse fibroblasts (MEF); assay: NMU-induced transformation of MEF, soft-agar colony formation; format: cell-based; settings: 2 mM NMU for 5 weeks, POG-4 1.0 µM, 10 weeks in 0.3 % soft-agar
Experimental: Primary mouse fibroblasts (MEF) were treated for 5 weeks with 2 mM N-nitroso-N-methylurea (NMU) or solvent to mutagenize their genomes. Selective killing of senescent subpopulation was assessed by measuring the percentage of SA-β-gal positive cells after POG-4 exposure (1.0 µM for 22 h). […] 2 × 10^4 of viable NMU-pre-treated MEF with or without subsequent POG-4 exposure (1.0 µM) from the experiment of Figure 9A were seeded in 0.3 % soft-agar and cultivated for 10 weeks, before formation of colonies (>50 cells/colony) was quantified. Again, means ± SD are illustrated POG-mediated senolysis of DMBA-induced OIS cells was tested; the results are depicted in Figure 10. Like NMU, 7,12-dimethyl-benzoanthracen (DMBA) is known to induce oncogenic mutations across all Ras isoforms. MEF were mutagenized with DMBA (0.25 µg/ml) for 7 days before cells were exposed to increasing concentrations of POG 1 week later. Cell viabilities were measured 22 h later using a dye exclusion assay (right; (Ghost Dye Red 780, 13-0865-T500, Tonbo). SA-β-gal stainings (left) were performed 2 days after POG exposure. Filled circles denote experiments conducted with solvent; filled squares denote experiments conducted with DMBA.

C57/BL6 mice [6] = assay: NMU-induced tumorigenesis in vivo (T-cell lymphoma development); settings: 30 mg NMU/kg i.p. for 5 weeks, POG-4 2 × 0.25 mg kg^-1 i.v. within one week, monitored 300 d; p = 0.0258
Experimental: The interference of POG-4 with NMU-induced tumorigenesis was established in vivo (Figure 11). For this purpose, 30 days old C57/BL6 mice were mutagenized for 5 consecutive weeks with 30 mg NMU/kg bodyweight (b.w.) intraperitoneally (i.p.) prior to treatment with POG-4 (2 × 0.25 mg kg^-1 body weight intravenously (i.v.) injected within one week) or solvent, respectively. The mice were subsequently monitored for 300 d and T-cell lymphoma development was plotted as the time between first NMU treatment and tumor manifestation in a Kaplan Meier format. Log-rank [Mantel-Cox] test was used to compare solvent- and POG-treated cohorts.

A549 = assay: Virus-induced senescence (VIS) model, dye exclusion viability test; format: cell-based, human; settings: lentivirus MOI = 50, POG-4 for 22 h
Experimental: VIS: The human alveolar epithelial adenocarcinom cell line A549 as well as VIS-deficient VeroB4 cells were infected with a high-titer GFP-expressing lentivirus (pCDH-CMV-MCS-EF1-GFP; MOI = 50) to induce VIS.
as §1
The adenocarcinomic alveolar epithelial cell line A549 as well as VIS-deficient VeroB4 cells were infected with a high-titer GFP-expressing lentivirus (pCDH-CMV-MCS-EF1-GFP; multiplicity of infection [MOI] = 50). At day 6, the cells were stained for SA-β-gal before treating them with increasing concentrations of POG-4. After 22 h, the cell viability was measured using a dye exclusion test. Figure 12 illustrates means ± SD.

## Cn1nc(/C=C/c2ccccc2)nc2c(=O)n(C)c(=O)nc1-2 [POG-4, (E)-1,6-Dimethyl-3-styrylpyrimido[5,4-e][1,2,4]triazine-5,7(1H,6H)-dione]
Hydrogen peroxide; 5 µM POG-4, 1 mM NADH
  time at which the maximum concentration was reached: approximately 120 minutes
Hydrogen peroxide; POG 1 µM, NADH 0.1 mM to 5 mM
  hydrogen peroxide concentration in dependence on NADH concentration: higher hydrogen peroxide concentration
Hydrogen peroxide; POG-4 0.1 to 5 µM with 1 mM NADH, MOPS buffer pH 6.9, time frame of 300 min
  generation of H2O2 (fluorescence): continuous generation of H2O2
[1]; then POG for 22 h
  sensitivity of senescent cells versus non-senescent tumor cells (viability): significantly more sensitive
[1]
  senolytic activity in senescent cells protected by expression of catalase: did not exhibit senolytic activity
[1]; listed as POG
  senolytic activity in senescent cells protected by expression of catalase: lack sensitivity
[2]
  dependence of activity on cellular NADH levels: relied on increased levels of the reducing equivalent (NADH)
C57/BL6 mice [3]
  running time on rotating rod: significantly extended the running time
[4]; senescence-capable p53+/+ Eµ-myc lymphomas, versus DMSO, P = 0.0282
  overall survival: lived significantly longer
[4]; senescence-incapable Eµ-myc;p53-null lymphomas, P > 0.05
  overall survival: failed to realize such benefit
Liver cell preparations
  percentage of senescent liver cells: decreased significantly
[5]
  NMU-induced transformation (soft-agar colonies): ablates NMU-induced transformation
C57/BL6 mice [6]
  NMU-induced tumorigenesis (time to tumor manifestation): interferes with NMU-induced tumorigenesis in vivo
A549
  senolytic activity against virus-induced senescence: exhibit senolytic activity
